Test results published in PubChem BioAssay (NCI).
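1) Cells in 96-well plates. 2) Compound, 48 h, 5 concentrations. 3) Linear interpolation between surrounding doses. 4) Unreached endpoint = highest concentration. GI50: concentration for 50% inhibition of growth. TGI denotes the concentration required for complete inhibition of growth.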

Key:
Experiment in all cases: NCI tumour cell line growth inhibition, 48 h
[1] = system: SNB-75 CNS
[2] = system: U251 CNS
[3] = system: ACHN renal
[4] = system: TK-10 renal
[5] = system: MDA-MB-435
[6] = system: SR leukemia
[7] = system: CCRF-CEM leukemia
[8] = system: OVCAR-3 ovarian
[9] = system: IGROV1 ovarian
[10] = system: MDA-MB-231 breast
[11] = system: NCI-H522 lung
[12] = system: HCT-15 colon
[13] = system: HOP-62 NSCLC
[14] = system: BT-549 breast
[15] = system: SK-MEL-2 melanoma
[16] = system: MCF7 breast
[17] = system: HCT-116 colon
[18] = system: EKVX NSCLC
[19] = system: MOLT-4 leukemia
[20] = system: SK-OV-3 ovarian
[21] = system: A498 renal
[22] = system: A549 NSCLC
[23] = system: SK-MEL-28 melanoma
[24] = system: NCI-H23 lung
[25] = system: SNB-19 CNS
[26] = system: NCI-H226 lung
[27] = system: HOP-92 NSCLC
[28] = system: OVCAR-8 ovarian
[29] = system: MALME-3M melanoma
[30] = system: KM12 colon
[31] = system: UO-31 renal
[32] = system: UACC-257 melanoma
[33] = system: LOX IMVI melanoma
[34] = system: K-562 leukemia
[35] = system: RPMI-8226 leukemia
[36] = system: OVCAR-5 ovarian
[37] = system: HL-60(TB) leukemia
[38] = system: COLO 205 colon
[39] = system: M14 melanoma
[40] = system: RXF 393 renal
[41] = system: NCI-H460 lung
[42] = system: NCI/ADR-RES ovarian
[43] = system: UACC-62 melanoma
[44] = system: CAKI-1 renal
[45] = system: SN12C renal
[46] = system: DU-145 prostate
[47] = system: 786-0 renal
[48] = system: HT29 colon
[49] = system: SK-MEL-5 melanoma
[50] = system: HCC-2998 colon
[51] = system: SF-295 CNS
[52] = system: PC-3 prostate
[53] = system: SF-539 CNS
[54] = system: OVCAR-4 ovarian
[55] = system: SW-620 colon
[56] = system: SF-268 CNS

O=C1N=C(c2c(-c3[nH]c(=O)c4ccc(Br)cc4c3O)c(O)c3ccccc3c2O)C(=O)c2cc(Br)ccc21
GI50 [1]: 261 nM
TGI [1]: 537 nM
GI50 [2]: 370 nM
TGI [2]: 798 nM
GI50 [3]: 333 nM
TGI [3]: 908 nM
GI50 [4]: 484 nM
TGI [4]: 1180 nM
GI50 [5]: 1030 nM
TGI [5]: 4740 nM
GI50 [6]: 944 nM
TGI [6]: > 16700 nM
GI50 [7]: 930 nM
TGI [7]: > 16700 nM
GI50 [8]: 388 nM
TGI [8]: 932 nM
GI50 [9]: 493 nM
TGI [9]: 1410 nM
GI50 [10]: 585 nM
TGI [10]: > 16700 nM
GI50 [11]: 359 nM
TGI [11]: 1110 nM
GI50 [12]: 306 nM
TGI [12]: 672 nM
GI50 [13]: 292 nM
TGI [13]: 660 nM
GI50 [14]: 422 nM
TGI [14]: 1350 nM
TGI [15]: > 4940 nM
GI50 [16]: 335 nM
TGI [16]: 1210 nM
GI50 [17]: 378 nM
TGI [17]: 1000 nM
GI50 [18]: 353 nM
TGI [18]: 1530 nM
GI50 [19]: > 3710 nM
TGI [19]: > 16700 nM
GI50 [20]: 388 nM
TGI [20]: 1220 nM
GI50 [21]: 4.4 nM
TGI [21]: > 16700 nM
GI50 [22]: 577 nM
TGI [22]: > 16700 nM
GI50 [23]: 375 nM
TGI [23]: 926 nM
GI50 [24]: 300 nM
TGI [24]: 785 nM
GI50 [25]: 611 nM
TGI [25]: > 16700 nM
GI50 [26]: 335 nM
TGI [26]: 937 nM
GI50 [27]: > 16700 nM
TGI [27]: > 16700 nM
GI50 [28]: 526 nM
TGI [28]: > 16700 nM
GI50 [29]: 367 nM
TGI [29]: 770 nM
GI50 [30]: 566 nM
TGI [30]: 1970 nM
GI50 [31]: 287 nM
TGI [31]: 638 nM
GI50 [32]: 480 nM
TGI [32]: 1110 nM
GI50 [33]: 281 nM
TGI [33]: 554 nM
GI50 [34]: 593 nM
TGI [34]: > 16700 nM
GI50 [35]: > 3430 nM
TGI [35]: > 16700 nM
GI50 [36]: > 8370 nM
TGI [36]: > 16700 nM
GI50 [37]: > 16700 nM
TGI [37]: > 16700 nM
GI50 [38]: > 16700 nM
TGI [38]: > 16700 nM
GI50 [39]: 523 nM
TGI [39]: 1600 nM
GI50 [40]: 296 nM
TGI [40]: 646 nM
GI50 [41]: 417 nM
TGI [41]: 1020 nM
GI50 [42]: 363 nM
TGI [42]: 1080 nM
TGI [43]: > 16700 nM
GI50 [44]: 379 nM
TGI [44]: 1030 nM
GI50 [45]: 359 nM
TGI [45]: 790 nM
GI50 [46]: 427 nM
TGI [46]: 1110 nM
GI50 [47]: 360 nM
TGI [47]: 805 nM
GI50 [48]: > 8040 nM
TGI [48]: > 16700 nM
GI50 [49]: 479 nM
TGI [49]: 1470 nM
GI50 [50]: 347 nM
TGI [50]: 832 nM

Cc1c(CN)c(C)c(CN)c(C)c1CN
TGI [1]: > 100000 nM
TGI [2]: > 100000 nM
TGI [3]: > 100000 nM
TGI [51]: > 100000 nM
TGI [52]: > 100000 nM
TGI [4]: > 100000 nM
TGI [5]: > 100000 nM
TGI [6]: > 100000 nM
TGI [7]: > 100000 nM
TGI [9]: > 100000 nM
TGI [53]: > 100000 nM
TGI [10]: > 100000 nM
TGI [11]: > 100000 nM
TGI [12]: > 100000 nM
TGI [13]: > 100000 nM
TGI [14]: > 100000 nM
TGI [15]: > 100000 nM
TGI [16]: > 100000 nM
TGI [17]: > 100000 nM
TGI [18]: > 100000 nM
TGI [19]: > 100000 nM
TGI [54]: > 100000 nM
TGI [22]: > 100000 nM
TGI [23]: > 100000 nM
TGI [24]: 94500 nM
TGI [55]: > 100000 nM
TGI [25]: > 100000 nM
TGI [26]: > 100000 nM
TGI [27]: > 100000 nM
TGI [28]: > 100000 nM
TGI [29]: > 100000 nM
TGI [30]: > 100000 nM
TGI [32]: > 100000 nM
TGI [33]: > 100000 nM
TGI [34]: > 100000 nM
TGI [35]: > 100000 nM
TGI [36]: > 100000 nM
TGI [37]: > 100000 nM
TGI [38]: > 100000 nM
TGI [39]: > 100000 nM
TGI [41]: > 100000 nM
TGI [56]: > 100000 nM
TGI [42]: > 100000 nM
TGI [44]: > 100000 nM
TGI [45]: > 100000 nM
TGI [46]: > 100000 nM
TGI [47]: > 100000 nM
TGI [48]: > 100000 nM
TGI [49]: > 100000 nM
TGI [50]: > 100000 nM
